Test results reported in patent US20220409647A1, “COMPOSITIONS, METHODS AND KITS FOR ALTERING ADIPOCYTES” (NuSirt Sciences, Inc., priority 2019, published 2022).

What was measured:
[1] = test system: intracellular NAD+; conditions: human and animal data (background); cited from earlier work
[2] = test system: Sirt1; assay: Western blot of Sirt1 in hASC cells; format: cell-based, human; conditions: 8 μM Naringenin, 30 μM Nicotinamide Riboside or the combination, 6 days
Method: (§1) Human adipose derived stem cells (hASC, LaCell, L.L.C., New Orleans, La.) from two different female overweight (BMI=26) donors were plated at a density of 10000 cells/cm^2 on 96-well plates and 24-well plates in preadipocyte medium (HyClone DMEM/F12 1:1, 10% fetal bovine serum (FBS), 1% Antibiotic/Antimycotic (Penicillin/Streptomycin/amphotericin)) at 37° C. in 5% CO2. One day after reaching confluence, preadipocytes were induced to differentiate with a differentiation medium consisting of 70% Gibco DMEM (high glucose 4.5 g/L), 30% HyClone DMEM/F12 1:1 (3 g/L glucose), 3% FBS, 1% Antibiotic/Antimycotic, 1 μM Dexamethasone, 33 μM Biotin, 100 nM Insulin, 20 μM Pantothenate, 5 μM Rosiglitazone, 500 μM IBMX. […]
(§2) The Phospho-AMPKα (Thr172)-, AMPK- and Sirt1—antibody was obtained from Cell Signaling (Danvers, Mass.). hASC cells were grown on 24-well plates and treated as indicated. Proteins were extracted by using standard protocols and measured by BCA kit (Thermo Scientific). […] Visualization and chemiluminescent detection was conducted using BioRad ChemiDoc instrumentation and software (Bio-Rad Laboratories, Hercules, Calif.) and band intensity was assessed using Image Lab 4.0 (Bio-Rad Laboratories, Hercules, Calif.), with correction for background. […]

[3] = test system: PRDM16; assay: PRDM16 gene expression by qRT-PCR in hASC cells; format: cell-based, human; conditions: 8 μM Naringenin, 30 μM Nicotinamide Riboside or the combination, 6 days
Method: (§3) Human adipose derived stem cells (hASC, LaCell, L.L.C., New Orleans, La.) from two different female overweight (BMI=26) donors were plated at a density of 10000 cells/cm^2 on 96-well plates and 24-well plates in preadipocyte medium (HyClone DMEM/F12 1:1, 10% fetal bovine serum (FBS), 1% Antibiotic/Antimycotic (Penicillin/Streptomycin/amphotericin)) at 37° C. in 5% CO2. […]
(§4) hASC cells were grown in a 96-well plate and treated as indicated. […] Gene expression was assessed by quantitative real-time polymerase chain reaction (qRT-PCR) using StepOnePlus™ PCR system (Thermo Fisher Scientific) and TaqMan Gene expression assays for UCP1 (Invitrogen, assay ID # Hs01084772_m1), Glut 4 (Invitrogen, assay ID # Hs00168966_m1), CPT1b (Invitrogen, assay ID # Hs0046298_s1), PRDM16 (Invitrogen, assay ID # Hs00223161_m1), AdipoQ (Invitrogen, assay ID # HS00605917_m1), ChREBP (Invitrogen, assay ID # HS00975714_m1), ATGL (Invitrogen, assay ID # Hs00982042), and RPL13A (Invitrogen, assay ID #Hs04194366_g1) as endogenous control.
(§5) Results were combined and calculated as fold changes of Control and represented as mean±SEM.

[4] = test system: ChREBP; assay: ChREBP gene expression by qRT-PCR in hASC cells; format: cell-based, human; conditions: 8 μM Naringenin, 30 μM Nicotinamide Riboside or the combination, 6 days
Method: as §3, §4, §5

[5] = test system: AdipoQ; assay: AdipoQ gene expression by qRT-PCR in hASC cells; format: cell-based, human; conditions: 8 μM Naringenin, 30 μM Nicotinamide Riboside or the combination, 6 days
Method: as §3, §4, §5

[6] = test system: Glut4; assay: Glut4 gene expression by qRT-PCR in hASC cells; format: cell-based, human; conditions: 8 μM Naringenin, 30 μM Nicotinamide Riboside or the combination, 6 days
Method: as §3, §4, §5

[7] = test system: p-AMPK; assay: Western blot of p-AMPK in hASC cells; format: cell-based, human; conditions: 8 μM Naringenin, 30 μM Nicotinamide Riboside or the combination, 6 days
Method: as §1, §2

[8] = test system: UCP1; assay: UCP1 gene expression by qRT-PCR in hASC cells; format: cell-based, human; conditions: 8 μM Naringenin, 30 μM Nicotinamide Riboside or the combination, 6 days
Method: as §3, §4, §5

[9] = test system: CPT1b; assay: CPT1b gene expression by qRT-PCR in hASC cells; format: cell-based, human; conditions: 8 μM Naringenin, 30 μM Nicotinamide Riboside or the combination, 6 days
Method: as §3, §4, §5

[10] = test system: ATGL; assay: ATGL gene expression by qRT-PCR in hASC cells; format: cell-based, human; conditions: 8 μM Naringenin, 30 μM Nicotinamide Riboside or the combination, 6 days
Method: as §3, §4
Results were combined and calculated as fold changes of Control and represented as mean±SEM. […]

[11] = test system: hASC cells; assay: Fatty acid oxidation (Seahorse) oxygen consumption; format: cell-based, human; conditions: Seahorse XF 24; palmitate 200 μM; 8 μM Naringenin or combination with 30 μM NR
Method: as §1, with “IBMX. Preadipocytes were maintained in this differentiation medium for 4 to 5 days and subsequently cultured in maintenance medium (70% Gibco DMEM high glucose, 30% HyClone DMEM/F12 1:1, 3% FBS, 1% Antibiotic/Antimycotic, 1 μM Dexamethasone, 33 μM Biotin, 100 nM Insulin, 20 μM Pantothenate) (=day 0 for experiments).” for “IBMX.”
The palmitate-stimulated oxygen consumption rate was measured with the XF 24 analyzer (Seahorse Bioscience, Billerica, Mass., USA) Cells were seeded and differentiated as described above. […] Data for each sample were normalized to the pre-palmitate injection baseline for that sample and expressed as % change from that baseline. […] All data are expressed as mean±SEM. […]

SMILES	increase in NAD+ resulting from administration [1] [%]	Sirt1 protein expression [2]	PRDM16 expression, fold changes of Control [3]	ChREBP expression, fold changes of Control [4]	AdipoQ expression, fold changes of Control [5]	Glut4 expression, fold changes of Control [6]	p-AMPK protein expression [7]	UCP1 expression, fold changes of Control [8]	CPT1b expression, fold changes of Control [9] [fold]	ATGL expression, fold changes of Control [10]	increase in both basal and palmitate-induced oxygen consumption (fatty acid oxidation) [11]
NC(=O)c1ccc[n+]([C@@H]2O[C@H](COP(=O)([O-])O)[C@@H](O)[C@H]2O)c1 [NMN, Nicotinamide mononucleotide]	~40	–	–	–	–	–	–	–	–	–	–
NC(=O)c1ccc[n+]([C@@H]2O[C@H](CO)[C@@H](O)[C@H]2O)c1 [NR, Nicotinamide Riboside]	~40	no significant effect	significantly upregulated	two-fold	no significant effect	no independent effect	no significant effect	no independent effect	~2.4	–	–
O=C1C[C@@H](c2ccc(O)cc2)Oc2cc(O)cc(O)c21 [naringenin, Naringenin]	–	significantly increased	significantly upregulated	two-fold	modestly but significantly increased	two-fold	significantly increased	~12 fold	~2.4	two-fold	30-40%
